Experimental data: patent publication US20070224194A1, “Methods for Inhibiting Angiogenesis and/or Lymphangiogenesis” (LUDWIG INSTITUTE FOR CANCER RESEARCH, priority 2004, published 2007)
The star is where a group is joined. Decanoyl = CCCCCCCCCC(=O)*; CH2Cl = ClC*

Experiments:
[1] = test system: proteolytic processing of VEGF-D; experiment: Processing of VEGF-D secreted by 293EBNA cells expressing VEGF-D-FULL-N-FLAG (immunoprecipitation/Western blot); type: cell-based, human; details: for proteolytic processing of full-length VEGF-D: 100 μM
Experimental: 293EBNA cells stably transfected with an expression construct encoding VEGF-C-FULL-N-Myc (full-length VEGF-C tagged with Myc at the N-terminus) or VEGF-D-FULL-N-FLAG (full-length VEGF-D tagged with FLAG at the N-terminus) secrete fully and partially processed forms of VEGF-C or VEGF-D into the culture medium (Joukov et al., EMBO J. 16:3898-3911 1997; Stacker et al., J. Biol. Chem. 274: 32127-32136, 1999). These cells were grown overnight in 24-well plates, seeded with 8×10^4 cells per well. At the time when cultures were initiated in these plates, growth medium was supplemented with Dec-RVKR-CMK (Calbiochem) (dissolved in methanol) to a final concentration of 0, 1, 10, 50 or 100 μM. Solvent control cultures were also established, in which the medium was supplemented with methanol at concentrations equal to those present in the cultures treated with inhibitor. After 18 hours of growth (at 37° C., 10% CO2 in a humidified environment), conditioned cell culture medium was removed from the cells and cleared by centrifugation (5 minutes, 250×g, 4° C.).
VEGF-C species were immunoprecipitated from conditioned medium by addition of anti-VEGF-C antibody that binds the VHD and C-terminal propeptide (R&D Systems). VEGF-D species were immunoprecipitated by addition of A2 antiserum that binds within the VHD of VEGF-D (Stacker et al., J. Biol. Chem. 274: 32127-32136, 1999). Immune complexes were allowed to form for 2 hours at 4° C. with gentle agitation and precipitated by addition of 10 μl of protein A sepharose beads and incubation for 2 hours at 4° C. with gentle agitation. Protein A sepharose complexes were recovered by centrifugation (5 minutes, 250×g, 4° C.) and washed twice with ice cold 50 mM Tris, 150 mM NaCl, pH 8.0. The precipitated VEGF-C and VEGF-D species were then analysed by Western blot using biotinylated antibodies against the VHD and C terminus of VEGF-C, or the VHD of VEGF-D (R&D Systems) and streptavidin-horse radish peroxidase conjugate (Zymed) (FIGS. 1 and 2). […]
The 293EBNA cell lines expressing VEGF-D-FULL-FLAG, VEGF-DΔC or VEGF-DΔN were seeded into 24-well plates (8×10^4 cells/well), in medium supplemented with Dec-RVKR-CMK dissolved in methanol, to a final concentration of 0, 1, 10, 50 or 100 μM. […] The precipitated VEGF-D species were then analysed by reducing SDS-PAGE and Western blotting using a biotinylated antibody against the VHD of human VEGF-D (R&D Systems), and Streptavidin-horse radish peroxidase conjugate (Zymed).

[2] = test system: BaF3 cells expressing the VEGFR-3/EpoR chimeric receptor; experiment: BaF3 bioassay, VEGFR-3/EpoR chimeric receptor, [3H]thymidine incorporation; type: cell-based; details: paper example in present tense
Source text: In order to test if a furin or broad-range PC inhibitor can block the biological effects of VEGF-D, mammalian cells are employed that proteolytically process VEGF-D, such as 293EBNA or Capan-1 pancreatic carcinoma cells. Derivatives of these cells harboring an expression construct for full-length VEGF-D are transfected with the shRNA construct for furin (as described here) or treated with a broad-range PC inhibitor such as decanoyl-Arg-Val-Lys-Arg-chloromethylketone (see, PCT WO 2005/112971 A1, the disclosure of which is incorporated herein by reference in its entirety). The inhibition of VEGF-D processing by these agents is confirmed by immunoprecipitation/Western blotting of the conditioned cell culture media using antibody that binds the VHD of VEGF-D. The conditioned cell culture media from cells treated with the inhibitors (and from cells in which these agents are omitted, i.e. “mock” treatments) are used for incubations with BaF3 pre-B cells expressing chimeric receptors consisting of the extracellular domains of VEGFR-2 or VEGFR-3 and the transmembrane and cytoplasmic domains of the erythropoietin receptor (EpoR) (Stacker et al., J. Biol. Chem., 274:34884-34892, 1999; Achen et al., Eur. J. Biochem., 267:2505-2515, 2000). […] The proliferation of the cells in response to the conditioned media containing VEGF-D is monitored by incorporation of [3H]thymidine into DNA. […]

In the case of “Decanoyl-Arg-Val-Lys-Arg-chloromethylketone (Decanoyl-RVKR-CH2Cl) [Dec-RVKR-CMK]”, the “abundance of fully and partially processed forms of VEGF-D” value ([1]; 0, 1, 10, 50 or 100 μM, 18 hours, Western blot) is reported as “dramatically reduced in abundance in a dose-dependent manner”, the “proteolytic processing of full-length VEGF-D” value ([1]; 18 hours) is reported as “totally blocked” and the “proteolytic processing of full-length VEGF-D” value ([1]; 18 hours, listed as dec-RVKR-CMK) is reported as “complete inhibition”. The “proteolysis of VEGF-D-FULL-N-FLAG” value ([1]; concentrations lower than 100 μM) was “incompletely inhibited” and the “proliferation of BaF3 VEGFR-3/EpoR cells induced by conditioned media of treated VEGF-D-expressing cells” value [2] was “do not induce significant proliferation”.
